As usually defined, the IC50 is the concentration that gives 50% inhibition.

The text below walks through data of patent EP4631940A1, “COMPOUND TARGETING PAN-KRAS PROTEIN DEGRADATION AGENT AND USE THEREOF” (Betta Pharmaceuticals Co., Ltd., priority 2022, dated 2024).

For one assay, the system named is AGS. Description: Cell proliferation experiment (CellTiter-Glo). The format is cell-based. The conditions noted are these: Homo sapiens, AGS, 96 h, read-out: IC50(nM) AGS.
The target in assay [1] is T1, KRAS G12D (Homo sapiens, UniProt P01116, G12D).
Assay [2] deals with T1, KRAS G12D. Description: cell-based. The following applies: AGS.

T1 sequence (P01116 1-188 isoform P01116-2 G12D): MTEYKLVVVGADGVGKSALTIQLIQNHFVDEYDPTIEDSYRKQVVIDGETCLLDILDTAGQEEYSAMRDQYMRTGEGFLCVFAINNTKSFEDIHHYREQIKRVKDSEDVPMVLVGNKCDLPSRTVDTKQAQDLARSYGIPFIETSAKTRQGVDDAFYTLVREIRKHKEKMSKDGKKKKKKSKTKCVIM

For the compound `CCc1c(F)ccc2cc(O)cc(-c3ncc4c(N5CCC[C@@](C)(O)C5)nc(OCCN5CCC(CCOc6cc([C@H](C(=O)N7C[C@H](O)C[C@H]7C(=O)N[C@@H](C)c7ccc(-c8scnc8C)cc7)C(C)C)on6)CC5)nc4c3F)c12` [Compound 79], the IC50 in the assay on AGS was 44 nM. Besides, the DC50 on KRAS G12D [1] stood at 44 nM. This compound also gave a Dmax on KRAS G12D [2] of 95%.
Regarding `CCc1c(F)ccc2cc(O)cc(-c3ncc4c(N5CCC[C@@](C)(O)C5)nc(OCCN5CCC(COc6cc([C@H](C(=O)N7C[C@H](O)C[C@H]7C(=O)N[C@@H](C)c7ccc(-c8scnc8C)cc7)C(C)C)on6)CC5)nc4c3F)c12` [Compound 80], the half-inhibitory concentration (IC50) in the assay with AGS is 63 nM. In addition, the DC50 at KRAS G12D [1] turned out to be 40 nM. Also, the Dmax on KRAS G12D [2] was found to be 95%.
The like results for `CCc1c(F)ccc2cc(O)cc(-c3ncc4c(N5CCC[C@@](C)(O)C5)nc(OCC5(CN6CCC(CN7CCN(c8cc([C@H](C(=O)N9C[C@H](O)C[C@H]9C(=O)N[C@@H](C)c9ccc(-c%10scnc%10C)cc9)C(C)C)on8)CC7)CC6)CC5)nc4c3F)c12` [Compound 104] were, in that order, 39 nM, 27 nM and 95%.
In the same order, the values of `CCc1c(F)ccc2cc(O)cc(-c3ncc4c(N5CCC[C@@](C)(O)C5)nc(OCC5(CN6CCN(c7cc([C@H](C(=O)N8C[C@H](O)C[C@H]8C(=O)N[C@@H](C)c8ccc(-c9scnc9C)cc8)C(C)C)on7)CC6)CC5)nc4c3F)c12` [Compound 112] are 57 nM, 5 nM and 95%.
The like results for `CCc1c(F)ccc2cc(O)cc(-c3ncc4c(N5CCC[C@@](C)(O)C5)nc(OCC5(CN6CC(N7CCN(c8cc([C@H](C(=O)N9C[C@H](O)C[C@H]9C(=O)N[C@@H](C)c9ccc(-c%10scnc%10C)cc9)C(C)C)on8)CC7)C6)CC5)nc4c3F)c12` [Compound 116] were, in that order, 27 nM, 30 nM and 95%.
For the compound `C=C1CN2[C@H](COc3cc(-c4cn([C@H](C(=O)N5C[C@H](O)C[C@H]5C(=O)N[C@@H](C)c5ccc(-c6scnc6C)cc5)C(C)C)nn4)ccn3)CC[C@@]2(COc2nc(N3CCC[C@@](C)(O)C3)c3cnc(-c4cc(O)cc5ccc(F)c(CC)c45)c(F)c3n2)C1` [Compound 121], in the assay on AGS, the 50% inhibitory concentration (IC50) is 40 nM. At KRAS G12D [1], the DC50 stood at 30 nM. At KRAS G12D [2], this compound came in with a Dmax of 95%.
The like results for `CCc1c(F)ccc2cc(O)cc(-c3ncc4c(N5CCC[C@@](C)(O)C5)nc(OCC5(CN6CCC(c7cn([C@H](C(=O)N8C[C@H](O)C[C@H]8C(=O)N[C@@H](C)c8ccc(-c9scnc9C)cc8)C(C)C)nn7)CC6)CC5)nc4c3F)c12` [Compound 131, (2S,4R)-1-((S)-2-(4-(1-((((7-(8-ethyl-7-fluoro-3-hydroxynaphthalen-1-yl)-8-fluoro-4-((R)-3-hydroxy-3-methylpiperidin-1-yl)pyrido[4,3-d]pyrimidin-2-yl)oxy)methyl)cyclopropyl)methyl)piperidin-4-yl)-1H-1,2,3-triazol-1-yl)-3-methylbutanoyl)-4-hydroxy-N-(((S)-1-(4-(4-methylthiazol-5-yl)phenyl)ethyl)pyrrolidine-2-carboxamide] were, in that order, 34 nM, 18 nM and 95%.
In the same order, the values of `CCc1c(F)ccc2cc(O)cc(-c3ncc4c(N5CCC[C@@](C)(O)C5)nc(OCC5(CN6CCN(Cc7cn([C@H](C(=O)N8C[C@H](O)C[C@H]8C(=O)N[C@@H](C)c8ccc(-c9scnc9C)cc8)C(C)C)nn7)CC6)CC5)nc4c3F)c12` [Compound 132] are 25 nM, 19 nM and 95%.
For `CCc1c(F)ccc2cc(O)cc(-c3ncc4c(N5CCC[C@@](C)(O)C5)nc(OCC5(CN6CCC(N7CCC(c8cn([C@H](C(=O)N9C[C@H](O)C[C@H]9C(=O)N[C@@H](C)c9ccc(-c%10scnc%10C)cc9)C(C)C)nn8)CC7)CC6)CC5)nc4c3F)c12` [Compound 137], the IC50 with AGS was found to be 37 nM. The same compound showed a DC50 at KRAS G12D [1] of 37 nM. On KRAS G12D [2], this compound gave a Dmax of 95%.
Regarding `CCc1c(F)ccc2cc(O)cc(-c3ncc4c(N5CCC[C@@](C)(O)C5)nc(OCC5(CN6CCN(CC78CC(c9cn([C@H](C(=O)N%10C[C@H](O)C[C@H]%10C(=O)N[C@@H](C)c%10ccc(-c%11scnc%11C)cc%10)C(C)C)nn9)(C7)C8)CC6)CC5)nc4c3F)c12` [Compound 148], the half-maximal inhibitory concentration (IC50) with AGS amounted to 15 nM. For the same compound, the DC50 at KRAS G12D [1] was 13 nM. On KRAS G12D [2], this compound came in with a Dmax of 95%.
The like results for `CCc1c(F)ccc2cc(O)cc(-c3ncc4c(N5CCC[C@@](C)(O)C5)nc(OCC5(CN6CCC7(CC6)CC(Oc6cc([C@H](C(=O)N8C[C@H](O)C[C@H]8C(=O)N[C@@H](C)c8ccc(-c9scnc9C)cc8)C(C)C)on6)C7)CC5)nc4c3F)c12` [Compound 150] were, in that order, 11 nM, 14 nM and 95%.
Consider `CCc1c(F)ccc2cc(O)cc(-c3ncc4c(N5CCC[C@@](C)(O)C5)nc(OCC5(CN6CCC(Nc7ccc(-c8cn([C@H](C(=O)N9C[C@H](O)C[C@H]9C(=O)N[C@@H](C)c9ccc(-c%10scnc%10C)cc9)C(C)C)nn8)cn7)CC6)CC5)nc4c3F)c12` [Compound 152], for which the IC50 with AGS was determined as 30 nM. The compound also showed a DC50 on KRAS G12D [1] of 27 nM. On KRAS G12D [2], the Dmax was determined as 95%.
Regarding `CCc1c(F)ccc2cc(O)cc(-c3ncc4c(N5CCC[C@@](C)(O)C5)nc(OCC5(CN6CCC(N(C)c7ccc(-c8cn([C@H](C(=O)N9C[C@H](O)C[C@H]9C(=O)N[C@@H](C)c9ccc(-c%10scnc%10C)cc9)C(C)C)nn8)cn7)CC6)CC5)nc4c3F)c12` [Compound 154], the IC50 in the assay on AGS came out at 13 nM. For the same compound, the DC50 at KRAS G12D [1] amounted to 5.5 nM. The same compound returned a Dmax on KRAS G12D [2] of 95%.
The like results for `CCc1c(F)ccc2cc(O)cc(-c3ncc4c(N5CCC[C@@](C)(O)C5)nc(OCC5(CN6CCC7(CC6)CCN(c6cc([C@H](C(=O)N8C[C@H](O)C[C@H]8C(=O)N[C@@H](C)c8ccc(-c9scnc9C)cc8)C(C)C)on6)CC7)CC5)nc4c3F)c12` [Compound 155, (2S,4R)-1-((R)-2-(3-(9-((1-((7-(8-ethyl-7-fluoro-3-hydroxynaphthalen-1-yl)-8-fluoro-4-((R)-3-hydroxy-3-methylpiperidin-1-yl)pyrido[4,3-d]pyrimidin-2-yl)oxy)methyl)cyclopropyl)methyl)-3,9-diazaspiro[5.5]nonan-3-yl)isoxazol-5-yl)-3-methylbutanoyl)-4-hydroxy-N-((S)-1-(4-(4-(4-methylthiazol-5-yl)phenyl)ethyl)pyrrolidine-2-carboxamide] were, in that order, 23 nM, 8.7 nM and 95%.
The like results for `CCc1c(F)ccc2cc(O)cc(-c3ncc4c(N5CCC[C@@](C)(O)C5)nc(OCC5(CN6CCN(C7CN(c8cc([C@H](C(=O)N9C[C@H](O)C[C@H]9C(=O)N[C@@H](C)c9ccc(-c%10scnc%10C)cc9)C(C)C)on8)C7)CC6)CC5)nc4c3F)c12` [Compound 156] were, in that order, 9.6 nM, 9.6 nM and 95%.
For `CCc1c(F)ccc2cc(O)cc(-c3ncc4c(N5CCC[C@@](C)(O)C5)nc(OC[C@]56CCCN5[C@@H](COc5ccc(-c7cn([C@H](C(=O)N8C[C@H](O)C[C@H]8C(=O)N[C@@H](C)c8ccc(-c9scnc9C)cc8)C(C)C)nn7)cn5)CC6)nc4c3F)c12` [Compound 157], the half-maximal inhibitory concentration (IC50) in the assay with AGS stood at 19 nM. For the same compound, the DC50 on KRAS G12D [1] stood at 7.7 nM. Also, the Dmax on KRAS G12D [2] turned out to be 95%.
